According to patent US8883771B2, “Bivalent inhibitors of IAP proteins and therapeutic methods using the same” (The Regents of the University of Michigan, priority 2012, dated 2014):
Where two headings read alike, the source gives them in different places.

Tests used:
[1] = test system: SK-OV-3 ovarian cancer cell line; assay: Inhibition of cell growth in SK-OV-3 ovarian cancer cell line; assay type: cell-based, human
[2] = test system: MDA-MB-231 breast cancer cell line; assay: Inhibition of cell growth in MDA-MB-231 breast cancer cell line; assay type: cell-based, human
[3] = target: cIAP-2 BIR3 (residues 238-349) (Homo sapiens (Human), UniProt Q13489); assay: Fluorescence polarization (FP) based competitive binding assay, cIAP-2 BIR3; conditions: read-out: Binding Affinities IC50 (nM) cIAP2 Protein
Description: (§1) For cIAP-1 BIR3 and cIAP-2 BIR3 assays, a fluorescently labeled Smac mimetic (Smac-2F) was used as the fluorescent probe. The Kd values of Smac-2F to cIAP-1 BIR3 and cIAP-2 BIR3 were determined by monitoring the total fluorescence polarization of mixtures composed with the fluorescent probe at a fixed concentration and proteins with increasing concentrations up to full saturation. Fluorescence polarization values were measured using the Infinite M-1000 plate reader (Tecan U.S., Research Triangle Park, N.C.) in Microfluor 2 96-well, black, round-bottom plates (Thermo Scientific). To each well, 1 nM of SMAC-2F and increasing concentrations of protein were added to a final volume of 125 μl in the assay buffer (100 mM potassium phosphate, pH 7.5, 100 μg/ml bovine γ-globulin, 0.02% sodium azide, Invitrogen, with 4% DMSO). Plates were incubated at room temperature for 1-2 hours and mixed with gentle shaking to assure equilibrium. […] Equilibrium dissociation constants (Kd) were then calculated by fitting the sigmoidal dose-dependent FP increases as a function of protein concentrations using Graphpad Prism 5.0 software (Graphpad Software, San Diego, Calif.).
(§2) Mixtures of 5 μl of the tested compounds in DMSO and 120 μl of preincubated protein/tracer complex in the assay buffer (100 mM potassium phosphate, pH 7.5, 100 μg/ml bovine γ-globulin, 0.02% sodium azide, Invitrogen) were added into assay plates and incubated at room temperature for 2 hours with gentle shaking. Final concentrations of proteins and probes were 3 nM and 1 nM, 5 nM and 1 nM for assays for cIAP-1 BIR3 and cIAP-2 BIR3, respectively. […] FP values were measured as described above. IC50 values were determined by nonlinear regression fitting of the competition curves. The Ki values of competitive inhibitors were calculated using the derived equation described previously, based upon the measured IC50 values, the Kd values of the probe to different proteins, and the concentrations of the proteins and probes in the competitive assays.

[4] = target: cIAP1-BIR3 (residues 253-363) (Homo sapiens (Human), UniProt Q13490); assay: Fluorescence polarization (FP) based competitive binding assay, cIAP1-BIR3; conditions: Smac-2F probe, read-out: Binding Affinities IC50 (nM) cIAP1 Protein
Description: as §1, §2

[5] = target: XIAP linker-BIR2-BIR3 (residues 120-356) (Homo sapiens (Human), UniProt P98170); assay: Fluorescence polarization (FP) based competitive binding assay, XIAP linker-BIR2-BIR3; conditions: read-out: Binding Affinities IC50 (nM) XIAP Protein
Description: as §1, §2
The FP-based assay for XIAP linker-BIR2-BIR3 protein was performed with the same procedures. In this assay, a bivalent fluorescently tagged peptidic Smac mimetic (Smac-1F) was used as the fluorescent probe whose Kd value to XIAP linker-BIR2-BIR3 was determined similarly through the saturation experiments. 0.01% of Triton X-100 was added in the assay buffer to achieve stable fluorescence and polarization value of the dimeric fluorescent probe. Final protein and probe concentrations utilized in the competitive assay were 3 nM and 1 nM, respectively.

[6] = SK-OV-3 ovarian cancer cell line
[7] = MDA-MB-231 breast cancer cell line
[8] = FP competitive assay, Smac-2F probe
[9] = Homo sapiens, SK-OV-3, SK-OV-3 ovarian cancer cell line
[10] = Homo sapiens, MDA-MB-231, MDA-MB-231 breast cancer cell line
[11] = Homo sapiens, SK-OV-3 ovarian cancer cell line
[12] = Homo sapiens, MDA-MB-231 breast cancer cell line

SMILES	IC50 [1, 9]	IC50 [2, 10]	other results
CN[C@@H](C)C(=O)N[C@H]1CN(C(=O)Nc2ccc(NC(=O)N3CC[C@H]4CC[C@@H](C(=O)N[C@@H]5C[C@@H]5c5ccccc5)N4C(=O)[C@@H](NC(=O)[C@H](C)NC)C3)cc2)CC[C@H]2CC[C@@H](C(=O)N[C@@H]3C[C@@H]3c3ccccc3)N2C1=O (stereo in doubt) [Example 26]	–	–	IC50 [1, 6]: < 1000 nM; IC50 [2, 7]: < 1000 nM
CN[C@@H](C)C(=O)N[C@H]1CN(C(=O)NCCCCCCNC(=O)N2CC[C@H]3CC[C@@H](C(=O)N[C@H]4CCCC[C@@H]4c4ccccc4)N3C(=O)[C@@H](NC(=O)[C@H](C)NC)C2)CC[C@H]2CCC(C(=O)N[C@H]3CCCC[C@@H]3c3ccccc3)N2C1=O (stereo in doubt) [Example 40]	–	–	IC50 [3, 8]: < 3000 nM; IC50 [1, 6]: < 10000 nM; IC50 [4]: < 3000 nM; IC50 ([5]; FP competitive assay, Smac-1F probe): < 3000 nM; IC50 [2, 7]: < 10000 nM
CN[C@@H](C)C(=O)N[C@H]1CN(C(=O)Nc2ccc(-c3ccc(NC(=O)N4CC[C@H]5CC[C@@H](C(=O)NC(c6ccccc6)c6ccccc6)N5C(=O)[C@@H](NC(=O)[C@H](C)NC)C4)c(C)c3)cc2C)CC[C@H]2CCC(C(=O)NC(c3ccccc3)c3ccccc3)N2C1=O (stereo partly shown) [Example 15]	< 1000 nM	< 1000 nM	–
CN[C@@H](C)C(=O)N[C@H]1CN(C(=S)Nc2ccc(NC(=S)N3CC[C@H]4CC[C@@H](C(=O)NC(c5ccccc5)c5ccccc5)N4C(=O)[C@@H](NC(=O)[C@H](C)NC)C3)cc2)CC[C@H]2CCC(C(=O)NC(c3ccccc3)c3ccccc3)N2C1=O (stereo partly shown) [Example 16]	–	< 100 nM	–
CN[C@@H](C)C(=O)N[C@H]1CN(C(=O)Nc2ccc(CCc3ccc(NC(=O)N4CC[C@H]5CC[C@@H](C(=O)NC(c6ccccc6)c6ccccc6)N5C(=O)[C@@H](NC(=O)[C@H](C)NC)C4)cc3)cc2)CC[C@H]2CCC(C(=O)NC(c3ccccc3)c3ccccc3)N2C1=O (stereo partly shown) [Example 17]	–	< 100 nM	–
CN[C@@H](C)C(=O)N[C@H]1CN(C(=S)Nc2ccc(Cc3ccc(NC(=S)N4CC[C@H]5CC[C@@H](C(=O)NC(c6ccccc6)c6ccccc6)N5C(=O)[C@@H](NC(=O)[C@H](C)NC)C4)cc3)cc2)CC[C@H]2CCC(C(=O)NC(c3ccccc3)c3ccccc3)N2C1=O (stereo partly shown) [Example 18]	–	< 100 nM	–
CNCC(=O)N[C@H]1CN(C(=O)N2CCN(C(=O)N3CC[C@H]4CC[C@@H](C(=O)NC(c5ccccc5)c5ccccc5)N4C(=O)[C@@H](NC(=O)[C@H](C)NC)C3)CC2)CC[C@H]2CCC(C(=O)NC(c3ccccc3)c3ccccc3)N2C1=O (stereo partly shown) [Example 20]	< 10000 nM	< 10000 nM	–
CN[C@@H](C)C(=O)N[C@H]1CN(C(=O)Oc2ccc(C(C)(C)c3ccc(OC(=O)N4CC[C@H]5CC[C@@H](C(=O)NC(c6ccccc6)c6ccccc6)N5C(=O)[C@@H](NC(=O)[C@H](C)NC)C4)cc3)cc2)CC[C@H]2CCC(C(=O)NC(c3ccccc3)c3ccccc3)N2C1=O (stereo partly shown) [Example 22]	< 1000 nM	< 100 nM	–
CN[C@@H](C)C(=O)N[C@H]1CN(S(=O)(=O)c2cccc(S(=O)(=O)N3CC[C@H]4CC[C@@H](C(=O)NC(c5ccccc5)c5ccccc5)N4C(=O)[C@@H](NC(=O)[C@H](C)NC)C3)c2)CC[C@H]2CCC(C(=O)NC(c3ccccc3)c3ccccc3)N2C1=O (stereo partly shown) [Example 23]	< 100 nM	< 100 nM	–
CN[C@@H](C)C(=O)N[C@H]1CN(C(=O)Nc2ccc(NC(=O)N3CC[C@H]4CC[C@@H](C(=O)N[C@@H]5C[C@@H]5c5ccccc5)N4C(=O)[C@@H](NC(=O)[C@H](C)NC)C3)cc2)CC[C@H]2CC[C@@H](C(=O)N[C@@H]3C[C@@H]3c3ccccc3)N2C1=O [Example 25]	< 1000 nM	< 1000 nM	–
CN[C@@H](C)C(=O)N[C@H]1CN(C(=O)Nc2ccc(NC(=O)N3CC[C@H]4CC[C@@H](C(=O)N[C@H]5C[C@@H]5c5ccccc5F)N4C(=O)[C@@H](NC(=O)[C@H](C)NC)C3)cc2)CC[C@H]2CC[C@@H](C(=O)N[C@H]3C[C@@H]3c3ccccc3F)N2C1=O [Example 27]	< 5000 nM	< 5000 nM	–
CN[C@@H](C)C(=O)N[C@H]1CN(C(=O)Nc2ccc(NC(=O)N3CC[C@H]4CC[C@@H](C(=O)N[C@@H]5C[C@H]5c5ccccc5)N4C(=O)[C@@H](NC(=O)[C@H](C)NC)C3)cc2)CC[C@H]2CC[C@@H](C(=O)N[C@@H]3C[C@H]3c3ccccc3)N2C1=O [Example 30]	< 10000 nM	< 10000 nM	–
CN[C@@H](C)C(=O)N[C@H]1CN(C(=O)Nc2ccc(NC(=O)N3CC[C@H]4CC[C@@H](C(=O)N[C@H]5C[C@@H]5c5ccccc5)N4C(=O)[C@@H](NC(=O)[C@H](C)NC)C3)cc2)CC[C@H]2CC[C@@H](C(=O)N[C@H]3C[C@@H]3c3ccccc3)N2C1=O [Example 31]	< 1000 nM	< 1000 nM	–
CN[C@@H](C)C(=O)N[C@H]1CN(C(=O)Nc2ccc(NC(=O)N3CC[C@H]4CC[C@@H](C(=O)N[C@H]5C[C@@H]5c5ccc(C(F)(F)F)cc5)N4C(=O)[C@@H](NC(=O)[C@H](C)NC)C3)cc2)CC[C@H]2CC[C@@H](C(=O)N[C@H]3C[C@@H]3c3ccc(C(F)(F)F)cc3)N2C1=O [Example 35]	< 10000 nM	< 10000 nM	–
CN[C@@H](C)C(=O)N[C@H]1CN(C(=O)NCc2cccc(CNC(=O)N3CC[C@H]4CC[C@@H](C(=O)N[C@H]5C[C@@H]5c5ccccc5)N4C(=O)[C@@H](NC(=O)[C@H](C)NC)C3)c2)CC[C@H]2CCC(C(=O)N[C@H]3C[C@@H]3c3ccccc3)N2C1=O (stereo partly shown) [Example 38]	< 10000 nM	< 10000 nM	–
CN[C@@H](C)C(=O)N[C@H]1CN(C(=O)NCCCCCCNC(=O)N2CC[C@H]3CC[C@@H](C(=O)N[C@H]4CCCC[C@@H]4c4ccccc4)N3C(=O)[C@@H](NC(=O)[C@H](C)NC)C2)CC[C@H]2CCC(C(=O)N[C@H]3CCCC[C@@H]3c3ccccc3)N2C1=O (stereo partly shown) [Example 39]	–	–	IC50 [1, 6]: < 1000 nM; IC50 [2, 7]: < 1000 nM
CN[C@@H](C)C(=O)N[C@H]1CN(C(=O)NCCCCCCNC(=O)N2CC[C@H]3CC[C@@H](C(=O)NC4Cc5ccccc5C4)N3C(=O)[C@@H](NC(=O)[C@H](C)NC)C2)CC[C@H]2CCC(C(=O)NC3Cc4ccccc4C3)N2C1=O (stereo partly shown) [Example 45]	< 1000 nM	< 1000 nM	–
CN[C@@H](C)C(=O)N[C@H]1CN(C(=O)NCCCCCCNC(=O)N2CC[C@H]3CC[C@@H](C(=O)NCCc4ccccc4)N3C(=O)[C@@H](NC(=O)[C@H](C)NC)C2)CC[C@H]2CCC(C(=O)NCCc3ccccc3)N2C1=O (stereo partly shown) [Example 46]	< 1000 nM	< 1000 nM	–
CN[C@@H](C)C(=O)N[C@H]1CN(C(=O)NCCCCCCNC(=O)N2CC[C@H]3CC[C@@H](C(=O)N[C@H]4CC[C@@H]4c4ccccc4)N3C(=O)[C@@H](NC(=O)[C@H](C)NC)C2)CC[C@H]2CCC(C(=O)N[C@H]3CC[C@@H]3c3ccccc3)N2C1=O (stereo partly shown) [Example 47]	–	–	IC50 [1, 11]: < 1000 nM; IC50 [2, 12]: < 1000 nM
CN[C@@H](C)C(=O)N[C@H]1CN(C(=O)NCCCCCCNC(=O)N2CC[C@H]3CC[C@@H](C(=O)N[C@H]4C[C@H](c5ccccc5)C4)N3C(=O)[C@@H](NC(=O)[C@H](C)NC)C2)CC[C@H]2CCC(C(=O)N[C@H]3C[C@H](c4ccccc4)C3)N2C1=O (stereo partly shown) [Example 48]	–	–	IC50 [1, 11]: < 10000 nM; IC50 [2, 12]: < 10000 nM
CN[C@@H](C)C(=O)N[C@H]1CN(C(=O)NCCCCCCNC(=O)N2CC[C@H]3CC[C@@H](C(=O)N[C@H]4C[C@H](c5ccccc5)C4)N3C(=O)[C@@H](NC(=O)[C@H](C)NC)C2)CC[C@H]2CCC(C(=O)N[C@H]3C[C@H](c4ccccc4)C3)N2C1=O (stereo partly shown) [Example 49]	–	–	IC50 [3, 8]: < 5000 nM; IC50 [4]: < 1000 nM; IC50 [5]: < 1000 nM
CN[C@@H](C)C(=O)N[C@H]1CN(C(=O)NCCCCCCNC(=O)N2CC[C@H]3CC[C@@H](C(=O)N[C@H]4C[C@@H](c5ccccc5)C4)N3C(=O)[C@@H](NC(=O)[C@H](C)NC)C2)CC[C@H]2CCC(C(=O)N[C@H]3C[C@@H](c4ccccc4)C3)N2C1=O (stereo partly shown) [Example 50]	–	–	IC50 [3]: < 1000 nM; IC50 [4]: < 1000 nM; IC50 [5]: < 1000 nM
